Measurements from the supplement of paper PMC11451515.

Tested on: SEM cells
Assay: cell viability relative to DMSO control; higher = less cytotoxic
Settings: 48 h
How it was run: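 NOMO1, SEM and P12-Ichikawa leukemia cells spent at least four passages adapting to each medium before use. They were seeded at 500 cells/well (NOMO1, SEM) or 1000 cells/well (P12-Ichikawa) in 5 μl in 1536-well plates and pin-dosed with library compounds in DMSO at 11 threefold steps from 47 μM down to 0.79 nM. After 48 h at 37°C, CellTiter-Glo One luminescence was read. Viability is reported as a percentage of the DMSO wells on each plate, with cell-free wells as background.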

CCCCCCNC(=O)N1\C=C(F)/C(=O)NC1=O
cell viability [%]
Settings | HPLM + 10% dialyzed FBS | RPMI 5 mM glucose + 10% FBS | RPMI 5 mM glucose + 10% dialyzed FBS
0.000781 µM | 126 | 115 | 126
0.00234 µM | 104 | 118 | 108
0.00702 µM | 113 | 128 | 116
0.0211 µM | 118 | 117 | 129
0.0632 µM | 121 | 134 | 120
0.19 µM | 118 | 117 | 107
0.569 µM | 124 | 112 | 99.8
1.71 µM | 110 | 129 | 101
5.12 µM | 121 | 118 | 106
15.4 µM | 108 | 97.9 | 80.5
46.1 µM | 83.1 | 73.6 | 46.4
